Where a name gives a salt, the structure may show the parent alone.

Data set [1] in a line: physchem.
For data set [2] the following is noted: cited from earlier work.
Data set [3] can be described thus: physchem. The source holds these as a separate data set.
Description: The final pH values of the solutions ranged from about 4 to about 6.

Regarding `CN1CCC[C@@H]1CCO[C@](C)(c1ccccc1)c1ccc(Cl)cc1` [Clemastine Fumarate, clemastine fumarate], the solubility (usually the concentration that dissolves in the medium under given conditions) at 24 h in “physchem [1]” (ammonium acetate 0.1 m, pH 5.4, Clemastine Fumarate Solubility) was found to be 6.1 mg/mL; in “physchem [1]” (ammonium acetate 0.25 m, pH 5.5, Clemastine Fumarate Solubility) it was 12.2 mg/mL; in the data set “physchem [1]” (ammonium acetate 0.5 m, pH 5.6, Clemastine Fumarate Solubility), 25.7 mg/mL; in “physchem [1]” (ammonium acetate 1.0 m, pH 5.7, Clemastine Fumarate Solubility) it was 43.3 mg/mL; in “physchem [1]” (sodium acetate 0.1 m, pH 5.4, Clemastine Fumarate Solubility) it was 6.6 mg/mL; in the data set “physchem [1]” (sodium acetate 0.25 m, pH 5.5, Clemastine Fumarate Solubility), 14.3 mg/mL. Besides, the solubility at 24 h came out at 24 mg/mL in “physchem [1]” (sodium acetate 0.5 m, pH 5.6, Clemastine Fumarate Solubility); 41.2 mg/mL in “physchem [1]” (sodium acetate 1.0 m, pH 5.7, Clemastine Fumarate Solubility); 5.5 mg/mL in “physchem [1]” (sodium ascorbate 0.1 m, pH 5.2, Clemastine Fumarate Solubility); 7.5 mg/mL in “physchem [1]” (sodium ascorbate 0.25 m, pH 5.2, Clemastine Fumarate Solubility); 16.7 mg/mL in the data set “physchem [1]” (sodium ascorbate 0.5 m, pH 5.2, Clemastine Fumarate Solubility); 30.6 mg/mL in the data set “physchem [1]” (sodium ascorbate 1.0 m, pH 5.3, Clemastine Fumarate Solubility). Also, the solubility at 24 h came to 28.6 mg/mL in “physchem [1]” (sodium citrate 0.15 m, pH 5.6, Clemastine Fumarate Solubility); 40 mg/mL in “physchem [1]” (sodium citrate 0.25 m, pH 5.7, Clemastine Fumarate Solubility); 44.2 mg/mL in “physchem [1]” (sodium fumarate 0.25 m, pH 6.2, Clemastine Fumarate Solubility); 82.1 mg/mL in the data set “physchem [1]” (sodium fumarate 0.5 m, pH 6.4, Clemastine Fumarate Solubility); 15.5 mg/mL in the data set “physchem [1]” (sodium glycinate 0.25 m, pH 9.1, Clemastine Fumarate Solubility); 26.6 mg/mL in the data set “physchem [1]” (sodium glycinate 0.5 m, pH 9.4, Clemastine Fumarate Solubility). In addition, the solubility at 24 h in “physchem [1]” (sodium malate 0.1 m, Clemastine Fumarate Solubility) amounted to 13.8 mg/mL; in the data set “physchem [1]” (sodium malate 0.25 m, pH 6, Clemastine Fumarate Solubility), 16.9 mg/mL; in the data set “physchem [1]” (sodium malate 0.5 m, pH 5.5, Clemastine Fumarate Solubility) it was 25.5 mg/mL; in “physchem [1]” (sodium malate 1.0 m, pH 5.7, Clemastine Fumarate Solubility), 29.3 mg/mL; in “physchem [1]” (sodium maleate 0.25 m, pH 6, Clemastine Fumarate Solubility), 41.4 mg/mL; in the data set “physchem [1]” (sodium maleate 0.5 m, pH 6.5, Clemastine Fumarate Solubility), 65 mg/mL. For the same molecule, the solubility at 24 h in the data set “physchem [1]” (sodium maleate 1.0 m, pH 6.8, Clemastine Fumarate Solubility) was 153 mg/mL; in the data set “physchem [1]” (sodium succinate 0.25 m, pH 6.1, Clemastine Fumarate Solubility), 15.4 mg/mL; in the data set “physchem [1]” (sodium succinate 0.5 m, pH 6.3, Clemastine Fumarate Solubility) it was 18.2 mg/mL; in the data set “physchem [1]” (sodium tartarate 0.5 m, pH 5.1, Clemastine Fumarate Solubility), 13.3 mg/mL. Moreover, the solubility in alcohol result in data set [2] (Remington, 19th edition, 1995) was “only slightly soluble”. The “solubility in water, chloroform or ether” value in data set [2] (Remington, 19th edition, 1995) is recorded as “very slightly soluble”. For the same molecule, the solubility in the data set “physchem [3]” (acetate buffer 0.5 m, pH 4.1) turned out to be 0.6 mg/mL; in “physchem [3]” (acetate buffer 0.5 m, pH 5), 3.8 mg/mL; in the data set “physchem [3]” (acetate buffer 0.5 m, pH 5.3) it was 11.2 mg/mL; in the data set “physchem [3]” (acetate buffer 0.5 m, pH 5.5), 18.2 mg/mL; in the data set “physchem [3]” (acetate buffer 0.5 m, pH 5.7), 24 mg/mL; in the data set “physchem [3]” (citrate buffer 0.5 m, pH 4.1) it was 2.7 mg/mL. The solubility in the data set “physchem [3]” (citrate buffer 0.5 m, pH 4.9) was found to be 3.3 mg/mL; in the data set “physchem [3]” (citrate buffer 0.5 m, pH 5.3), 31.6 mg/mL; in “physchem [3]” (citrate buffer 0.5 m, pH 5.6) it was 46.3 mg/mL; in “physchem [3]” (citrate buffer 0.5 m, pH 5.8) it was 47 mg/mL.
In the case of `CN1CCC[C@@H]1CCO[C@](C)(c1ccccc1)c1ccc(Cl)cc1` [clemastine], the “solubility in pharmaceutically acceptable solvents” value in data set [2] (as is well known in the art, clemastine and its salts) is reported as “sparingly soluble”.

The values above are taken from patent US5770618A (Nastech Pharmaceutical Company, Inc., priority 1996, dated 1998).
